Measurements reported in patent US20120135923A1, “Use of Melanocortins to Treat Dyslipidemia” (IPSEN PHARMA, S.A.S., priority 2009, published 2012).
Read-outs that look alike come from different tables or passages of the source. Bridge positions count the residues as written; N and C are the ends. Square brackets hold non-standard residues; d marks the D form. Peptide text beside a SMILES is read from it. d2Nal = N[C@H](Cc1ccc2ccccc2c1)C(=O)O; Bta = N[C@@H](Cc1csc2ccccc12)C(=O)O; Pen = CC(C)(S)[C@H](N)C(=O)O; Nle = CCCC[C@H](N)C(=O)O; GABA = NCCCC(=O)O

What was measured:
hMC5-R [1] = target: T1, hMC5-R (Homo sapiens, UniProt P33032); assay: Radioligand binding assay, [125I]-NDP-α-MSH competition, CHO-K1 membranes; conditions: Table 5; read-out: Ki hMC5-R
T1 construct: expressed in transfected cells; host or cells: CHO-K1
T1 sequence (P33032 whole entry): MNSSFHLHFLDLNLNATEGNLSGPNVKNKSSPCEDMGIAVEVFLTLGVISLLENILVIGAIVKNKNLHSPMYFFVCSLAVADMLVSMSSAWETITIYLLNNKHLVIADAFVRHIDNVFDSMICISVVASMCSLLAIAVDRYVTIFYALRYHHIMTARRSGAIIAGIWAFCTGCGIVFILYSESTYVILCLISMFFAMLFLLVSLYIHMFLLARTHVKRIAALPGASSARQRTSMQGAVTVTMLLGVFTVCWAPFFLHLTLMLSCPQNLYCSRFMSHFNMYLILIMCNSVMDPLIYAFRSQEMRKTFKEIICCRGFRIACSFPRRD
Procedure: (§1) Cellular membranes used for the in vitro receptor binding assays were obtained from transgenic CHO-K1 cells stably expressing hMC-R receptor subtypes 1, 3, 4 or 5. […] The pellets were resuspended in the same buffer and centrifuged at 50,000 g for 10 minutes at approximately 4° C. The washed pellets containing the cellular membranes were stored at approximately −80° C.
(§2) Cell membranes (1-10 μg protein/well) prepared as described above were incubated in 50 mM Tris-HCl at pH 7.4 containing 0.2% bovine serum albumin (BSA), 5 mM MgCl2, 1 mM CaCl2 and 0.1 mg/mL bacitracin, with increasing concentrations of the test compound and 0.1-0.3 nM [^25I]-NDP-α-MSH for approximately 90-120 minutes at approximately 37° C. […] Filters were washed three times with 50 mM Tris-HCl at pH 7.4 at a temperature of approximately 0-4° C. and then assayed for radioactivity using a Packard Topcount® scintillation counter. Binding data were analyzed by computer-assisted non-linear regression analysis (XL fit; IDBS).

hMC1-R [2] = target: T2, hMC1-R (Homo sapiens, UniProt Q01726); assay: as above; conditions: Table 5; read-out: Ki hMC1-R
T2 construct: expressed in transfected cells; host or cells: CHO-K1
T2 sequence (Q01726 whole entry): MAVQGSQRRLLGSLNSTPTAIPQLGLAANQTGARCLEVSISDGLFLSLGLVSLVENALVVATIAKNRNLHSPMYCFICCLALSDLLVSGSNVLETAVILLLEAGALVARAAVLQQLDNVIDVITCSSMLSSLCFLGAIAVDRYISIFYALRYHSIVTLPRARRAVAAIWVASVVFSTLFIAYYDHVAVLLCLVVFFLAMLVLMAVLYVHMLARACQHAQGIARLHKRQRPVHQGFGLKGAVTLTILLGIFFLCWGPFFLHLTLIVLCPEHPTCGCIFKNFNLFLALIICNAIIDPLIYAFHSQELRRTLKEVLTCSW
Procedure: as §1, §2

hMC3-R [3] = target: T3, hMC3-R (Homo sapiens, UniProt P41968); assay: as above; conditions: Table 5; read-out: Ki hMC3-R
T3 construct: expressed in transfected cells; host or cells: CHO-K1
T3 sequence (P41968 whole entry): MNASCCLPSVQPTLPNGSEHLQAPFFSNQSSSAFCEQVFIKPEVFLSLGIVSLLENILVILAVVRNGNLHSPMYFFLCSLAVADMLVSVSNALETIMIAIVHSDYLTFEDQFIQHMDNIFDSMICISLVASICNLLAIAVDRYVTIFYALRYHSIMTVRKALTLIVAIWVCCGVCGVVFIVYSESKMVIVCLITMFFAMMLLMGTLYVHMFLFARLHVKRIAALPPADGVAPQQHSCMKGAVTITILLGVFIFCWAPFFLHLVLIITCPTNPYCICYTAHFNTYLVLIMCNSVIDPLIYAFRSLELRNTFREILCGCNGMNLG
Procedure: as §1, §2

hMC1-R [4] = target: T2, hMC1-R; assay: cyclic AMP bioassay (ECL) in CHO-K1 cells; format: cell-based; conditions: read-out: EC50 hMC1-R
hMC3-R [5] = target: T3, hMC3-R; assay: cyclic AMP bioassay (ECL) in CHO-K1 cells; format: cell-based; conditions: Table 9A/9B; read-out: EC50 hMC3-R
Procedure: Intracellular cyclic AMP (cAMP) levels were determined by an electrochemiluminescence (ECL) assay (Meso Scale Discovery®, Gaithersburg, Md.; referred to hereinafter as MSD). […] Transgenic CHO-K1 cells stably expressing hMC receptor subtypes 1, 3, 4 or 5 were dispensed at a density of approximately 7,000 cells/well in 384-well Multi-Array®plates (MSD) containing integrated carbon electrodes and coated with anti-cAMP antibody. Increasing concentrations of the test compounds were added and the cells were incubated for approximately 40 minutes at approximately 37° C. […] At the end of the second incubation period read buffer (Tris-buffered solution containing an ECL co-reactant and Triton X-100 at ph 7.8) was added and the cAMP levels in the cell lysates were immediately determined by ECL detection with a Sector Imager 6000 Reader® (MSD). Data were analyzed using a computer-assisted non-linear regression analysis (XL fit; IDBS) and reported as either an EC50 value or a Kb value.
The Kb value reflects the potency of an antagonist and is determined by Schild analysis. In brief, concentration-response curves of an agonist are carried out in the presence of increasing concentrations of an antagonist. […] It is calculated by extrapolating the line on a Schild plot to zero on the y-axis.

hMC4-R = target: T4, hMC4-R (Homo sapiens, UniProt P32245); assay: cyclic AMP bioassay (ECL) in CHO-K1 cells; format: cell-based; conditions: Table 9A/9B; read-out: EC50 hMC4-R
T4 construct: expressed in transfected cells; host or cells: CHO-K1
T4 sequence (P32245 whole entry): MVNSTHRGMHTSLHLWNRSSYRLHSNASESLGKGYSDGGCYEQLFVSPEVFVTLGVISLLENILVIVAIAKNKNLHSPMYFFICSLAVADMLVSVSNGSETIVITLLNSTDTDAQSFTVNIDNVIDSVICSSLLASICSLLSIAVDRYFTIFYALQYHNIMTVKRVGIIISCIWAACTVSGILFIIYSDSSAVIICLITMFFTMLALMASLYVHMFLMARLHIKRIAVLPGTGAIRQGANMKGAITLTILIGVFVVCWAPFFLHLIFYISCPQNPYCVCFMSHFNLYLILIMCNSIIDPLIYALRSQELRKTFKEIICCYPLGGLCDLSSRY

hMC5-R [6] = target: T1, hMC5-R; assay: cyclic AMP bioassay (ECL) in CHO-K1 cells; format: cell-based; conditions: Table 9A/9B; read-out: EC50 hMC5-R

Work on `CCCC[C@H](NC(C)=O)C(=O)N[C@H]1CSSC[C@@H](C(N)=O)NC(=O)[C@H](Cc2csc3ccccc23)NC(=O)[C@H](CCCNC(=N)N)NC(=O)[C@@H](Cc2ccc3ccccc3c2)NC(=O)[C@H](Cc2c[nH]cn2)NC(=O)[C@@H](C)NC1=O` [Ac-Nle-c(Cys-D-Ala-His-D-2-Nal-Arg-Bal-Cys)-NH2] (Ac-[Nle]C[dA]H[d2Nal]R[Bta]C-NH2; disulfide 2-8) yielded a Ki (hMC5-R [1]) of 125 nM, a Ki (hMC1-R [2]) of 22.2 nM and a Ki (hMC3-R [3]) of 12.7 nM.

`CCCC[C@H](NC(C)=O)C(=O)N[C@H]1CSSC[C@@H](C(N)=O)NC(=O)[C@H](Cc2c[nH]c3ccccc23)NC(=O)[C@H](CCCNC(=N)N)NC(=O)[C@@H](Cc2ccccc2)NC(=O)[C@H](Cc2c[nH]cn2)NC(=O)[C@@H](C(C)C)NC1=O` [Ac-Nle-c(Cys-D-Val-His-D-Phe-Arg-Trp-Cys)-NH2] was tested, and the Ki (hMC5-R [1]) was 40 nM and the Ki (hMC3-R [3]) was 104 nM.

Work on `N=C(N)NCCC[C@@H]1NC(=O)[C@@H](Cc2ccccc2)NC(=O)[C@H](Cc2c[nH]cn2)NC(=O)[C@@H](NC(=O)[C@@H](N)Cc2ccccc2)CSSC[C@@H](C(N)=O)NC(=O)CCCNC(=O)[C@H](Cc2c[nH]c3ccccc23)NC1=O` [Phe-c(Cys-His-D-Phe-Arg-Trp-Gaba-Cys)-NH2] (H-FCH[dF]RW[GABA]C-NH2; disulfide 2-8) yielded a Ki (hMC3-R [3]) of 15.2 nM.

Compound `CC(=O)N[C@@H](CCCNC(=N)N)C(=O)N[C@H]1CSSC(C)(C)[C@@H](C(N)=O)NC(=O)CCCNC(=O)[C@H](Cc2c[nH]c3ccccc23)NC(=O)[C@H](CCCNC(=N)N)NC(=O)[C@@H](Cc2ccccc2)NC(=O)[C@H](Cc2c[nH]cn2)NC1=O` [Ac-Arg-c(Cys-His-D-Phe-Arg-Trp-Gaba-Pen)-NH2] (Ac-RCH[dF]RW[GABA][Pen]-NH2; disulfide 2-8 (inferred)) has an EC50 (hMC1-R [4]; Table 9A/9B) of 4.23 nM, an EC50 (hMC3-R [5]) of 8.09 nM and an EC50 (hMC4-R) of 0.719 nM. The EC50 (hMC5-R [6]) was 23.2 nM and the Ki (hMC1-R [2]) was 1.81 nM.

`CCCC[C@H](NC(C)=O)C(=O)N[C@H]1CSSC[C@@H](C(N)=O)NC(=O)[C@H](Cc2c[nH]c3ccccc23)NC(=O)[C@H](CCCNC(=N)N)NC(=O)[C@@H](Cc2ccccc2)NC(=O)[C@H](Cc2c[nH]cn2)NC(=O)[C@@H](C(C)(C)C)NC1=O` [Ac-Nle-c(Cys-D-Tle-His-D-Phe-Arg-Trp-Cys)-NH2] gave a Ki (hMC5-R [1]) of 40 nM and a Ki (hMC1-R [2]) of 12 nM.

`CCCC[C@H](NC(C)=O)C(=O)N[C@H]1CC(=O)NCCCC[C@@H](C(N)=O)NC(=O)CCNC(=O)[C@H](Cc2c[nH]c3ccccc23)NC(=O)[C@H](CCCNC(=N)N)NC(=O)[C@@H](Cc2ccc3ccccc3c2)NC(=O)[C@H](Cc2c[nH]cn2)NC1=O` [Ac-Nle-c(Asp-His-D-2-Nal-Arg-Trp-β-Ala-Lys)-NH2] showed an EC50 (hMC1-R [4]; Table 9C/9D) of 0.913 nM and a Ki (hMC1-R [2]) of 0.648 nM.

`CCCC[C@H](NC(C)=O)C(=O)N[C@H]1CSSC[C@@H](C(N)=O)NC(=O)CCNC(=O)[C@@H](Cc2c[nH]c3ccccc23)NC(=O)[C@H](CCCNC(=N)N)NC(=O)[C@@H](Cc2ccccc2)NC(=O)[C@H](Cc2c[nH]cn2)NC1=O` [Ac-Nle-c(Cys-His-D-Phe-Arg-D-Trp-β-Ala-Cys)-NH2] was tested, and the Ki (hMC1-R [2]) was 0.323 nM.

`CC(=O)N[C@H](CCCNC(=N)N)C(=O)N[C@H]1CSSC(C)(C)[C@@H](C(N)=O)NC(=O)CCCNC(=O)[C@H](Cc2c[nH]c3ccccc23)NC(=O)[C@H](CCCNC(=N)N)NC(=O)[C@@H](Cc2ccccc2)NC(=O)[C@H](Cc2c[nH]cn2)NC1=O` [Ac-D-Arg-c(Cys-His-D-Phe-Arg-Trp-Gaba-Pen)-NH2] (Ac-[dR]CH[dF]RW[GABA][Pen]-NH2; disulfide 2-8 (inferred)) was tested, and the EC50 (hMC1-R [4]; Table 9A/9B) was 8.43 nM, the EC50 (hMC3-R [5]) was 32.4 nM and the EC50 (hMC4-R) was 0.959 nM. It also gave an EC50 (hMC5-R [6]) of 2140 nM and a Ki (hMC1-R [2]) of 3.93 nM.
